One data set addresses recombinant GSK3β (Homo sapiens, UniProt P49841). In words: ADP-Glo kinase assay of GSK3β activity. The class given is biochemical. Conditions: for IC50: GSK3β kinase activity. On the procedure: Activity of recombinant GSK3β is measured using ADP-Glo Kinase assay according to supplier's standard protocol with minor modifications in 384 well format. Briefly, kinase reaction mixture was prepared by adding […] of recombinant enzyme, 2 μM ATP, 1 μg of enzyme substrate along with test compound or DMSO to a final volume of 5 μl. The kinase reaction was performed by incubating the mixture at room temperature for 17 mins. To correct reaction back ground a substrate blank reaction was also performed. ADP glow reagent (equal volume to reaction mixture) was added to the reaction mixture to deplete any unused ATP added to the kinase reaction and incubated at further 40 min at 27° C. Then 10 μl of kinase detection reagent was added followed by incubation for 30 min at 27° C. to convert ADP to ATP and introduce luciferase to measure kinase activity. The luminescence was measured using luminometer (Perkin Elmer) which is directly proportional to ADP generated in kinase reaction. To determine the amount of ADP produced in kinase reaction and calculate specific activity of the enzyme, a conversion curve is prepared by serial dilution of ADP and ATP mixture. Specific activity of the GSK3β was calculated using the following equation. (ADP(kinase reaction)−ADP(substrate blank)) in mmol)/(Reaction time in min)×(GSK3β in mg).
(In general: ADP-Glo turns the ADP formed in a reaction into a luminescent signal.)

The subject of data set [1] is PANC-1 cells. Description: Cell viability, Sulforhodamine B assay. The class given is cell-based. The method, then:
Cell viability was measured using Sulforhodamine B assay. The cytotoxic effect of the compounds with GSK3β inhibitory potential was tested against PANC-1 cells. Initially, the PANC-1 cells were seeded in flat bottom 96-well plate (5000 cells/100 μL) in complete medium and cultured for 18 hrs under standard conditions. After 18 h the cells were treated with either the different concentration of compounds, standard drugs or DMSO as solvent control. The final DMSO concentration to cells was maintained <2% in all cytotoxic assays. Each compound was tested in triplicate and the cytotoxicity was determined as the average of that triplicate. Further, the plates were incubated for another 48 h in an incubator maintained at 37° C. with a constant supply of 5% CO2. The cells were fixed using 10% TCA and incubated for 1 h at 4° C. Then the plates were rinsed carefully with MQ water and air dried at room temperature. To all the wells of MTP plate 0.057% SRB solution was added and kept for approximately 30 min before it was rinsed off using 1% acetic acid. The plates were then air dried and 100 μL of 10 mM tris base was added to each well to solubilize the SRB before absorbance was measured at 510 nm. The measure of absorbance is directly proportional to cell growth and is thus used to calculate % reduction in the rate of cell proliferation according to control DMSO treated cells. All experiments were performed in triplicates; mean % age proliferation values with ±SD were plotted here.

Data set [2] has as its system cellular GSK3β signalling in PANC-1 cells. In words: Western blot of GSK3β signalling and NFkB target proteins in PANC-1 cells. The class given is cell-based. On the procedure:
The compounds inhibiting GSK3β activity in-vitro added to PANC-1 cells to determine their potential against intracellular GSK3β signalling pathways in cancer cells. Briefly, PANC-1 cells were plated in 60 mm plates (100,000 cells/4 mL) and cultured in the standard DMEM medium containing 10% serum. After culturing for 18 hrs, different concentrations of test compounds or standard controls prepared in DMSO were added to culture media to achieve final concentration 0 to 100 μM of compound to cells. Cells were further continued to grow for 48 h with constant supply of 5% CO2 in humid incubator. The time course (0 to 48 h) experiment was carried out simultaneously with fixed concentration of compound showing 50% growth inhibition. At the end of the experiments, all cells were scraped directly in cold PBS and washed for 3 times before lysis directly in 2D lysis buffer (8M urea, 2M thiourea, 4% CHAPS, 4 mM tris base and 65 mM DTT) for isolation of proteins to perform western blots. The protein concentration was determined by modified Bradford assay.
To perform western blot, protein extracts were separated on 12% SDS-PAGE and electrophoretically (1 mA/cm^2 membrane for 1 hr) transferred onto the nitrocellulose membrane by semi-dry method. After protein transfer, membrane was stained with Ponceau S solution (0.2% Ponceau S in 3% Trichloroacetic acid) for 2 min to see efficiency of electrophoretic transfer. The membrane was destained in ddH2O to visualize the protein bands and further destained with TBST (20 mM Tris, 138 mM NaCl, pH 7.6 and 0.1% Tween 20) for blotting. To avoid non-specific detection of target proteins, blotted membranes were blocked with BSA (3% BSA in TBST solution). All antibodies against specific protein targets of interest were purchased from Cell Signaling Technology, USA if not mentioned specifically. Then the blots were incubated with antibodies prepared in blocking buffer (1:1000 Antibody to blocking buffer dilution) for 18 h with constant shaking at 4° C. Three washing steps in PBS each for 5 mins removed the excess and non-specific antibodies. For visualization, blots were incubated with secondary antibody conjugated to either horseradish peroxidase or alkaline phosphatase [anti-(mouse IgG) or anti-(rabbit IgG), diluted 1:5000 in TBST] for 1 h at room temperature. After three washes in PBS, the reaction was developed either by addition of LumiGLO substrate (Cell Signaling Technology) followed by capturing on X-ray film or addition of chromogenic NBT (nitro-blue tetrazolium chloride) and BCIP (5-bromo-4-chloro-3′-indolyphosphate p-toluidine salt) substrate for alkaline phosphatase developing purple colored bands. The blots were scanned for densitometry performed using Image-J program.
On the technique in general: A western blot detects proteins with antibodies after separation by electrophoresis.

Data set [3] deals with PANC-1 cells. In words: Colony formation (soft agar, clonogenic) assay. It counts as cell-based. Conditions: TRAIL alone, 10 ηg/mL. The method, then: To determine the efficiency of GSK3β inhibitors in combination with the TRIAL on anchorage independent growth of PANC-1 cells soft agar assay were performed. The base agar (0.5%) was prepared by mixing equal amounts of 1% agar with 2× media (20% FBS and 2× antibiotics) filled in 6-well plate. Simultaneously, PANC-1 cells (14000/well) mixed with 2× media containing different concentrations of identified compounds alone or in combination with TRAIL mixed with 0.7% of sterile agar to achieve final concentration of […] top agar. The cell suspension was spread on solidified base agar. Then the plates were incubated in CO2 incubator for 14 days and the cells were fed with fresh media containing respective concentration and combination of TRIAL every 3 days. Upon termination (after 14 days of incubation) plates were stained with 0.005% of crystal violet for 1 h and excess stain was removed by washing with MQ. The number of blue colonies were counted using olympus Xi71 microscope.

We go through 16 molecules from patent US11306100B2, “Spirooxindole compounds as GSK3B inhibitors and process for preparation thereof” (COUNCIL OF SCIENTIFIC & INDUSTRIAL RESEARCH, priority 2017, dated 2022).

As a reminder, the IC50 is the concentration that gives 50% inhibition. In general, melting point refers to the temperature of the solid-liquid transition.

Sequence of recombinant GSK3β (P49841 whole entry): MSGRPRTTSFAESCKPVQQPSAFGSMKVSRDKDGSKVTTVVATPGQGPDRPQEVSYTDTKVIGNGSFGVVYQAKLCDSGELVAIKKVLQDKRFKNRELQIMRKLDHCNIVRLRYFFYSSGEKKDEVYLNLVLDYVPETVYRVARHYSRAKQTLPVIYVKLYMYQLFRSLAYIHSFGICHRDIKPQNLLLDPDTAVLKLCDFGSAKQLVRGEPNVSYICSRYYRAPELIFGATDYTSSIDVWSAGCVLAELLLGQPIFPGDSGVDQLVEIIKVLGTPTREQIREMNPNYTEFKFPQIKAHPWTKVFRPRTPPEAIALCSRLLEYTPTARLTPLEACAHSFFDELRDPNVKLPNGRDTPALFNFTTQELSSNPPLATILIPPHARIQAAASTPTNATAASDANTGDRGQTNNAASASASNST

In turn, `CCOC(=O)c1cn(CC2CC3(CO2)C(=O)Nc2ccccc23)nn1` (stereo not shown) [AB-F, Ethyl-1-((2′-oxo-4,5-dihydro-2H-spiro[furan-3,3′-indoline]-5-yl)methyl)-1H-1,2,3-triazole-4-carboxylate] returned a melting point of 133 to 134 °C. Besides, the IC50 on recombinant GSK3β (2 μM ATP) is 4.68 ± 0.6 µM.

Take `O=C1Nc2ccccc2C12COC(CN1CCOCC1)C2` (stereo not shown) [AB-K, 5-(Morpholinomethyl)-4,5-dihydro-2H-spiro [furan-3, 3′-indolin]-2′-one]: the melting point was 126 to 128 °C. For the same molecule, the IC50 at recombinant GSK3β (2 μM ATP) turned out to be 4.91 ± 0.56 µM.

In the case of `O=C1Nc2ccccc2C12COC(CI)C2` (stereo not shown) [6a, 5-(Iodomethyl)-4,5-dihydro-2H-spiro[furan-3,3′-indolin]-2′-one], the melting point was 170.6 °C.

Consider `CCOC(=O)c1ccc(-c2cc(Cl)cc(Cl)c2OCc2cn(CC3CC4(CO3)C(=O)Nc3ccccc34)nn2)nc1C` (stereo not shown) [AB-W, Ethyl6-(3,5-dichloro-2-((1-((2′-oxo-4,5-dihydro-2H-spiro[furan-3,3′-indoline]-5-yl)methyl)-1H-1,2,3-triazol-4-yl)methoxy)phenyl)-2-methylnicotinate], for which the melting point was 132 to 135 °C.

Take `O=C1Nc2ccccc2C12COC(CN1CCN(c3ccccc3)CC1)C2` (stereo not shown) [AB-X, 5-((4-Phenylpiperazin-1-yl)methyl)-4,5-dihydro-2H-spiro[furan-3,3′-indolin]-2′-one]: the melting point lay in the range of 130 to 132 °C.

On to `CC(=O)Nc1ccccc1` [Acetanilide, reference compound], for which the IC50 at recombinant GSK3β (2 μM ATP) stood at 6.53 ± 0.52 µM.

For `[Cl-].[Li+]` [Licl, LiCl, reference compound], the half-maximal inhibitory concentration (IC50) at recombinant GSK3β was found to be 3990 µM.

For the molecule `O=C1Nc2ccccc2C12COC(CN1CCSCC1)C2` (stereo not shown) [AB-L, 5-(Thiomorpholinomethyl)-4,5-dihydro-2H-spiro[furan-3,3′-indolin]-2′-one], the IC50 at recombinant GSK3β (2 μM ATP) was 4.06 ± 1.67 µM.

In the case of `CC(C)(O)c1cn(CC2CC3(CO2)C(=O)Nc2ccccc23)nn1` (stereo not shown) [AB-E, 5-((4-(2-Hydroxypropan-2-yl)-1H-1,2,3-triazol-1-yl)methyl)-4,5-dihydro-2H-spiro[furan-3,3′-indolin]-2′-one], at recombinant GSK3β (2 μM ATP), the IC50 is 5.44 ± 1.49 µM.

For `O=C1Cc2ccccc2N1` [Oxindole], at recombinant GSK3β (2 μM ATP), the IC50 is 6.46 ± 0.63 µM.

For the molecule `COC(=O)c1ccc(-c2cc(Cl)ccc2OCc2cn(CC3CC4(CO3)C(=O)Nc3ccccc34)nn2)nc1C` (stereo not shown) [AB-N, Methyl-6-(5-chloro-2-((1-((2′-oxo-4,5-dihydro-2H-spiro[furan-3,3′-indoline]-5-yl)methyl)-1H-1,2,3-triazol-4-yl)methoxy)phenyl)-2-methylnicotinate], the melting point fell in the range of 120 to 122 °C.

For the molecule `O=Cc1ccccc1OCc1cn(CC2CC3(CO2)C(=O)Nc2ccccc23)nn1` (stereo not shown) [AB-P, 2-((1-((2′-Oxo-4,5-dihydro-2H-spiro[furan-3,3′-indoline]-5-yl)methyl)-1H-1,2,3-triazol-4-yl)methoxy)benzaldehyde], the IC50 at recombinant GSK3β (2 μM ATP) was 4.93 ± 0.53 µM.

Molecule `O=C1Nc2ccccc2C12COC(CN1CCN(Cc3ccccc3)CC1)C2` (stereo not shown) [AB-R, 5-((4-Benzylpiperazin-1-yl)methyl)-4,5-dihydro-2H-spiro[furan-3,3′-indolin]-2′-one] came in with a melting point of 141 to 143 °C.

In turn, `O=C1Nc2ccccc2C12COC(Cn1cc(-c3ccccc3)nn1)C2` (stereo not shown) [AB-C, 5-((4-Phenyl-1H-1,2,3-triazol-1-yl)methyl)-4,5-dihydro-2H-spiro[furan-3,3′-indolin]-2′-one] yielded a melting point of 175 to 177 °C. The “inhibition of GSK3β in in-vitro kinase assays” value at recombinant GSK3β is on record as “potent inhibition”. For the same molecule, the IC50 at recombinant GSK3β (2 μM ATP) was 3.59 ± 0.98 µM. Also, the “effectiveness against cell growth” value in the data set with PANC-1 cells [1] (FIG. 3B, low concentration of TRAIL (1 ηg/mL)) is listed as “not effective compared to remaining compounds”. The “effectiveness against cell growth / sensitisation to TRAIL” value in the data set with PANC-1 cells [1] (in combination with TRAIL (10 ηg/mL), FIG. 3A) is given as “less effective compared to other molecules”. The “phosphorylation of GSK3β” value in data set [2] (PANC-1 cells treated with compound) is recorded as “significantly decreased”. In addition, the β-catenin level result in data set [2] (PANC-1 cells versus control (DMSO)) is listed as “accumulation of β-catenin”.

For `Cc1ccc([N+](=O)[O-])cc1S(=O)(=O)N(C)/N=C/c1cnc2ccc(Br)cn12` [PIK-75, reference compound], the IC50 on recombinant GSK3β is 0.0176 µM.

B1: TRAIL: Tumor necrosis factor-related apoptosis-inducing ligand (TRAIL) (protein, UniProt P50591 1-281, looked up)
Tumor necrosis factor ligand …: MAMMEVQGGPSLGQTCVLIVIFTVLLQSLCVAVTYVYFTNELKQMQDKYSKSGIACFLKEDDSYWDPNDEESMNSPCWQVKWQLRQLVRKMILRTSEETISTVQEKQQNISPLVRERGPQRVAAHITGTRGRSNTLSSPNSKNEKALGRKINSWESSRSGHSFLSNLHLRNGELVIHEKGFYYIYSQTYFRFQEEIKENTKNDKQMVQYIYKYTSYPDPILLMKSARNSCWSKDAEYGLYSIYQGGIFELKENDRIFVSVTNEHLIDMDHEASFFGAFLVG
For B1, in the data set with PANC-1 cells [1] (TRAIL alone (10 ηg/ml)), the “cell death in PANC-1 cells” value is reported as “did not cause any significant cell death”. Further, the “inhibition of colony formation” value in the data set with PANC-1 cells [3] is on record as “did not show effective inhibition on colony formation”.
